Patent US20240252662A1, “PEPTIDE DRUG CONJUGATES SPECIFIC TO FIBRONECTIN ISOTYPES FOR CANCER THERAPY” (priority 2021, published 2024)
Entries after “also recorded” stand apart in the source; their conditions may differ.

Key:
[1] = test system: PC3 prostate cancer, 4T1 and MDA-MB-231 breast cancer cells; experiment: cell cytotoxicity of DOX conjugates in PC3, 4T1 and MDA-MB-231 cells; format: cell-based; conditions: at 2.5, 5 and 10 μM; compared with doxorubicin; FIG. 11
Description: The reason for the lower cytotoxicity is the slow release of DOX from the ZD2-AM-DOX conjugated with an amide bond.
The cell cytotoxicity of the ZD2-PEG-HZ-DOX was tested using PC3 prostate cancer, 4T1 and MDA-MB-231 breast cancer cells at concentrations of […].

[2] = test system: PC3 prostate tumor xenografts; conditions: for tumor volume by the end of the treatment (mean±SD): daily i.p. 7.34 μmol/kg/day for 29 days, n=6, PBS control 1223±136 mm^3
Source text: (§1) Anti-tumor efficacy of ZD2-HZ-JAAP conjugate was also investigated using the mice bearing PC3 prostate or 4T1 breast tumor xenografts. For tumor xenografts, PC3 prostate or 4T1 breast cancer cells suspended in Matrigel-PBS were subcutaneously injected into the flank of nude mice or mammary fat pads of BALB/C mice, respectively. Tumor volumes were monitored and measured twice a week using a Vernier caliper. When the average tumor volumes reached 100 mm^3 for PC3 tumors, and 45 mm^3 for 4T1 tumors, the mice bearing tumor xenografts were randomized into PBS control, JQ1 and ZD2-HZ-JAAP treatment groups (n=6 for PC3 tumors or 5 for 4T1 tumors). Free JQ1 and ZD2-HZ-JAAP conjugates were administrated by daily intraperitoneal injection for 29 days at a dose of 7.34 μmol/kg/day. Tumor size and bodyweight were monitored twice a week. The tumor sizes were measured with Vernier calipers, and tumor volumes were calculated using the equation V=(L*W2)/2.

[3] = test system: 4T1 breast tumor xenografts; conditions: i.p. 8.28 μmol/kg/week
Description: Anti-tumor efficacy of ZD2-HZ-DOX conjugate was investigated using the mice bearing 4T1 breast tumor xenografts. For tumor xenografts, 2×10^5 4T1 breast cancer cells suspended in Matrigel-PBS were injected into the mammary fat pads of each BALB/C mouse. Tumor volumes were monitored and measured twice a week using a Vernier caliper. When the average tumor volumes reached 100 mm^3, the BALB/C mice bearing 4T1 breast tumors were randomized into PBS control, free doxorubicin and ZD2-HZ-DOX treatment groups (n=5). Free doxorubicin and ZD2-HZ-DOX conjugates were administrated by intraperitoneal injection for 23 days at a dose of 8.28 μmol/kg/week with 3-injections per week, and 2.76 μmol/kg for each injection. Tumor size and bodyweight were monitored twice a week. The tumor sizes were measured with Vernier calipers, and tumor volumes were calculated using the equation V=(L*W2)/2.

[4] = test system: human MDA-MB-231 triple negative breast cancer tumors; experiment: in vivo anti-tumor activity of ZD2-HZ-JAAP, MDA-MB-231 tumors; parameters: species or system nude mice
Description: The in vivo anti-tumor activity of ZD2-HZ-JAAP was evaluated in the nude mice carrying human MDA-MB-231 triple negative breast cancer tumors. The ZD2-HZ-JAAP drug conjugate was administrated to the mice with human MDA-MB-231 tumors by daily i.p. injection at a dose of 4.4 μmol/kg/day for 30 days. The tumor sizes and body weights of the mice were measured twice a week. The tumor growth was also monitored using bioluminescence imaging on the day 1, 16, and 25 after drug administration, and MRI imaging on the day 7 and 28 after the drug administration. For the ZD2-HZ-JAAP treatment group the tumor growth was inhibited with average tumor size of 80 mm^3 after 30-days of drug treatment, while for the no-treatment control group the tumors were kept growing with average tumor size of 580 mm^3 after 30-days of no treatment. […] In literature, the treatment dose of JQ1 is 50 mg/kg/day or 0.11 mmol/kg/day by i.p. injection to treat the mice with tumors. The dose of ZD2-HZ-JAAP administered by the inventors is 4.4 μmol/kg/day, which is 25-times lower than JQ1 dose. […] Since ZD2-HZ-JAAP is a target-drug that is delivered and accumulated to the tumor site, which results in low toxicity for normal tissues. Target-drug delivery results in high drug concentration at tumor site, and low concentration at normal tissues with efficient killing of tumor cells and low toxicity to normal cells.

[5] = test system: 4T1 breast tumor xenografts; experiment: anti-tumor efficacy of ZD2-HZ-JAAP, 4T1 breast tumor xenografts; format: in vivo, BALB/C mice; conditions: daily i.p. 7.34 μmol/kg/day for 29 days; n=5; PBS control 645±240 mm^3
Source text: as §1

[6] = test system: DLD-1-DR drug resistant colon cancer, PANC-1 and BXPC3 pancreatic cancer, CAL27, SCC4 and HSC3 head and neck cancer cells, MDA-MB-231 and 4T1 breast cancer …; experiment: cell cytotoxicity of ZD2-HZ-JAAP in cancer cell panel; format: cell-based; conditions: after 48 hours incubation; compared with JQ1 or JAAP; FIG. 2
Description: FIG. 2 provides graphs showing the cell viability of different cancer cells treated with ZD2-HZ-JAAP.
The cell cytotoxicity of ZD2-HZ-JAAP was tested using DLD-1-DR drug resistant colon cancer, PANC-1 and BXPC3 pancreatic cancer, CAL27, SCC4 and HSC3 head and neck cancer cells, MDA-MB-231 and 4T1 breast cancer cells, PC3 and C4-2 prostate cancer cells.

SMILES: Cc1ccc(C(Cl)(c2ccccc2)c2ccccc2Cl)cc1 (stereo not shown) [ZD2-AM-DOX]
- cell cytotoxicity [1]: lower than that of doxorubicin

SMILES: Cc1sc2c(c1C)C(c1ccc(Cl)cc1)=N[C@@H](CC(=O)OC(C)(C)C)c1nnc(C)n1-2 [JQ1, reference compound]
- tumor volume by the end of the treatment (mean±SD) [2]: 537±170 mm^3
- suppression of tumor growth ([2]; same dose as ZD2-HZ-JAAP, 7.34 μmol/kg/day i.p.): didn't efficiently suppress tumor growth

SMILES: COc1cccc2c1C(=O)c1c(O)c3c(c(O)c1C2=O)C[C@@](O)(C(=O)CO)C[C@@H]3O[C@H]1C[C@H](N)[C@H](O)[C@H](C)O1 [doxorubicin]
- survival ([3]; 24-day treatment period): One mouse died on day 10, and all remaining mice died on day 11
- loss of bodyweight relative to initial weight ([3]; at day 10): 25%

SMILES: Cc1ccc(C(Cl)(c2ccccc2)c2ccccc2Cl)cc1 (stereo not shown) [ZD2-HZ-JAAP]
- tumor growth inhibition ([4]; 4.4 μmol/kg/day, 25-times lower than literature JQ1 dose): efficiently inhibited the triple-negative breast cancer tumor growth
- average tumor size ([4]; after 30 days of treatment, daily i.p. 4.4 μmol/kg/day, no-treatment control 580 mm^3): 80 mm^3
- body weight of the mice ([4]; daily i.p. 4.4 μmol/kg/day for 30 days, vs no-treatment group): kept growing; also recorded: no significant difference
- tumor volume by the end of the treatment (mean±SD) [5]: 46±30 mm^3
- cell cytotoxicity [6]: lower than that of JQ1 or JAAP
- tumor volume by the end of the treatment (mean±SD) [2]: 150±80 mm^3
- survival during treatment period ([2]; mice bearing PC3 or 4T1 tumors, 29 days of treatment, 7.34 μmol/kg/day i.p.): all mice were survived
- bodyweight change relative to initial weight ([2]; mice bearing PC3 or 4T1 tumors, daily i.p. 7.34 μmol/kg/day, 29 days): ≤ 10%
